Key:
[1] = target: T1, human A2a adenosine receptor (Homo sapiens, UniProt P29274); assay: Ligand Binding Assay for Adenosine A2a Receptor (A2A-B); conditions: HEK293 plasma membrane, radioligand [3H]CGS21680
T1 construct: purchased PerkinElmer RB-HA2a; host or cells: HEK293
In short: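 [3H]CGS21680 binding to HEK293 membranes expressing human A2a receptor in 50 mM Tris-HCl pH 7.4, 10 mM MgCl2, 1 mM EDTA, 2 h at room temperature. Nonspecific binding defined with […] NECA; bound ligand collected on PEI-soaked GF/C filters and counted by scintillation.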

[2] = target: T2, human adenosine A2a receptor (Homo sapiens, UniProt P29274); assay: Adenosine A2a Receptor Functional Assay (A2AGAL2); format: cell-based; conditions: CHO-K1 cells, cAMP inducible beta-galactosidase reporter, 15 nM NECA agonist challenge
T2 construct: expressed in transfected cells; host or cells: CHO-K1
T2 sequence (P29274 whole entry): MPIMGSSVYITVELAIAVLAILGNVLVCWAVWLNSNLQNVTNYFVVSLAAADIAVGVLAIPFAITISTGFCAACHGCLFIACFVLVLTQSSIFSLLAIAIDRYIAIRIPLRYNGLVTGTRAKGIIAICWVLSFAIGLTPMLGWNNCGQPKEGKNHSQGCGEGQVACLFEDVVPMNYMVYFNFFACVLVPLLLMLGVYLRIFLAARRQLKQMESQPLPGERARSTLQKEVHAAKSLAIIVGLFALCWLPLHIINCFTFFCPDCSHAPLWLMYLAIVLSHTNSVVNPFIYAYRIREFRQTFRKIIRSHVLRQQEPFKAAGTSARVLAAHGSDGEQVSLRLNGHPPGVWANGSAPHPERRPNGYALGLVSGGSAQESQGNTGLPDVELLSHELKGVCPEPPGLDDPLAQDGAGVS
In short: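 Antagonist mode in CHO-K1 cells expressing human A2a with a cAMP-inducible β-galactosidase reporter (10K cells/well, cultured 2 days). 11-point compound curves preincubated ~15 min at room temperature in Ham's F-12/0.1% BSA, then 15 nM NECA challenge, 5.5–6 h at 37 °C. Colorimetric β-gal read at 405 nm; IC/EC50 fitted.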

[3] = target: T3, human adenosine A1 receptor (Homo sapiens, UniProt P30542); assay: Adenosine A1 Receptor Functional Assay (A1GAL2); format: cell-based; conditions: CHO-K1 cells, cAMP inducible beta-galactosidase reporter, 4 nM r-PIA/1 uM Forskolin challenge
T3 construct: expressed in transfected cells; host or cells: CHO-K1
T3 sequence (P30542 1-326): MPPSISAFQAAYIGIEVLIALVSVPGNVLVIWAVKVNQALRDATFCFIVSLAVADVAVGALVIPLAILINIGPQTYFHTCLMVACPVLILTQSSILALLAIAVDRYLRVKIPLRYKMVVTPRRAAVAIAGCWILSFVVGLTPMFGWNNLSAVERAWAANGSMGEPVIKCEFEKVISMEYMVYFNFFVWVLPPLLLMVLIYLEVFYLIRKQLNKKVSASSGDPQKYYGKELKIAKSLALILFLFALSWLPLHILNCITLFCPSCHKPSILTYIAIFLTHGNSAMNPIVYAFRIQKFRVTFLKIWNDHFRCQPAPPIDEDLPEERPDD
In short: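 CHO-K1 cells expressing the receptor with a cAMP-inducible β-galactosidase reporter were preincubated with compound (11-point curves) about 15 min at room temperature, then challenged with r-PIA (4 nM)/forskolin (1 µM) for 5.5–6 h at 37 °C. Lysates were read colorimetrically at 405 nm, and IC/EC50 was obtained by curve fitting.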

T1 sequence (P29274 whole entry): as the sequence (P29274 whole entry) above

| Ki [1] [nM] | Ki [2] [nM] | Ki [3] [nM] | Structure (SMILES) |
| --- | --- | --- | --- |
| 0.54 | 10.2 | 783 | Nc1nc(-c2ccc(Cl)o2)nc2sc(CN3CC=CC3)cc12 [Example 97, 2-(5-Chloro-furan-2-yl)-6-(2,5-dihydro-pyrrol-1-ylmethyl)-thieno[2,3-d]pyrimidin-4-ylamine] |
| 20.3 | 8.85 | 158 | Nc1nc(-c2ccco2)nc2sc(CN3CC=CCC3)cc12 [Example 98, 6-(3,6-Dihydro-2H-pyridin-1-ylmethyl)-2-furan-2-yl-thieno[2,3-d]pyrimidin-4-ylamine] |
| 934 | 123 | 876 | Nc1nc(-c2ccnc(Cl)c2)nc2sc(CN3CCOCC3)cc12 [Example 105, 2-(2-Chloro-pyridin-4-yl)-6-morpholin-4-ylmethyl-thieno[2,3-d]pyrimidin-4-ylamine] |
| 66.1 | 30.5 | 2700 | Nc1nc(-c2ccc(C(F)F)o2)nc2sc(CN3CCOCC3)cc12 [Example 107, 2-(5-Difluoromethyl-furan-2-yl)-6-morpholin-4-ylmethyl-thieno[2,3-d]pyrimidin-4-ylamine] |
